US20230295201A1 (Gilead Sciences, Inc., priority 2020, published 2023)
Read-outs that look alike come from different tables or passages of the source.

Key:
Type in all cases: cell-based
HRV16 = HRV16 HELA EC50 (cytopathic effect in H1-HeLa cells)
Method: H1-HeLa cells, cultured in complete DMEM medium containing 10% heat-inactivated FBS and 1% Penicillin/Streptomycin, were seeded in 96 well plates at 3000 cells/well one day prior to compound dosing and infection. The antiviral activity of each compound was measured in triplicate. Compounds were added directly to the cell cultures in serial 3-fold dilutions using the HP300 digital dispenser (Hewlett Packard, Palo Alto, CA) immediately prior to infection. The plates were transferred to BSL-2 containment and the appropriate dilution of virus stock, previously determined by titration and prepared in cell culture media, was added to test plates containing cells and serially diluted compounds. Each plate included 6 wells of infected untreated cells and 6 wells of uninfected cells that served as 0% and 100% virus inhibition control, respectively. Following the infection, test plates were incubated for 96 h in a tissue culture incubator set to 33° C./5% CO2. Following incubation, the H1-HeLa cells were removed from incubation and allowed to equilibrate to 25° C. Cell viability was determined by removing 100 μL of culture medium and adding 100 μL of Cell-Titer Glo viability reagent. The mixtures were incubated on a shaker for 10 minutes at 25° C., and the luminescence signal was quantified on an Envision luminescence plate reader.

DENV2 replicon = assay: DENV-2 Huh-7 Rep EC50 (replicon luminescence); details: read-out: DENV-2 Huh-7 Rep EC50
Method: In 384 well plates (Greiner, Cat #781091), compounds were acoustically transferred at 200 nl per well in a 8 compound (4 replicates) or 40 compound dose response format (3 replicates). For all plates tested, Balapiravir, GS-5734 and NITD008 were included as positive inhibition controls alongside 0% inhibition, DMSO-only negative control wells. Following compound addition, Huh-7 cells containing the DENV2 replicon construct were harvested following standard cell culture procedures and were adjusted to a concentration of 1.25E5 cells/mL in cell culture media composed of cDMEM without genticin. 40 μL of the cell stock was then added to each well for a final cell density of 5,000 cells/well. Cell and compound mixtures were incubated at 37° C./5% CO2 for 48 hours. Prior to harvesting cells, EnduRen Live Cell Substrate (Promega, Cat #E6481) was prepared by suspending 3.4 mg into 100 uL of DMSO to generate a 60 mM stock solution. The stock solution was then diluted 1:200 in pre-warmed cDMEM and 10 uL of this diluted solution was added to each well of the 384 well plates. Plates were then centrifuged at 500 rpm briefly and were placed on a plate shaker for 2 min. Following mixing, plates were incubated at […] for 1.5 hours prior to measuring luminescence on an Envision luminometer.

RSV A2 = assay: RSV NHBE EC50 (RSV A2 antiviral assay in normal human bronchial epithelial cells); details: NHBE cells, RSV A2, 4 days, read-out: RSV NHBE EC50
RSV strain A2 = assay: RSV HEp-2 EC50 (infectious cytopathic cell protection assay); details: HEp-2 cells, RSV A2, 4 days, read-out: RSV HEp-2 EC50
Procedure, shortened: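 Percent inhibition of RSV-induced cytopathic effect came from remaining cell viability (CellTiter-Glo luminescence) after 4 days at 37° C. Compounds in 3-fold serial dilutions were exposed to an infectious mix of titered A2 virus and HEp-2 cells at 50,000/ml, with 0% and 100% inhibition control standards.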

[1] = 96 h, H1-HeLa cells, 33° C., read-out: HRV16 HELA EC50
[2] = Dengue virus, DENV2, Huh-7, 48 h, Huh-7 replicon cells, 48 hours
[3] = human respiratory syncytial virus, NHBE, 96 h
[4] = human respiratory syncytial virus, HEp-2, 96 h
[5] = H1-HeLa cells, 96 h, 33° C.; read-out: HRV16 HELA EC50
[6] = human respiratory syncytial virus, 96 h

Q: What does the source list for `CCC(CC)OC(=O)[C@H](CC)NP(=O)(OC[C@@]1(C#N)O[C@@H](c2ccc3c(N)ncnn23)[C@H](O)[C@@H]1O)Oc1ccccc1` (mixture of isomers) [Example 115, (2S)-pentan-3-yl 2-(((((2R,3S,4R,5S)-5-(4-aminopyrrolo[2,1-f][1,2,4]triazin-7-yl)-2-cyano-3,4-dihydroxytetrahydrofuran-2-yl)methoxy)(phenoxy)phosphoryl)amino)butanoate]?
A: EC50 (HRV16; [1]): 10.3 µM; EC50 (DENV2 replicon; [2]): > 50 µM; EC50 (RSV A2; [3]): 1.55 µM; EC50 (RSV strain A2; [4]): 8.66 µM

Q: How did the EC50 (HRV16; [1]) turn out when `CC(C)C[C@H](NP(=O)(OC[C@@]1(C#N)O[C@@H](c2ccc3c(N)ncnn23)[C@H](O)[C@@H]1O)Oc1ccccc1)C(=O)OCC1CC1` (mixture of isomers) [Example 130, (2S)-cyclopropylmethyl 2-(((((2R,3S,4R,5S)-5-(4-aminopyrrolo[2,1-f][1,2,4]triazin-7-yl)-2-cyano-3,4-dihydroxytetrahydrofuran-2-yl)methoxy)(phenoxy)phosphoryl)amino)-4-methylpentanoate] was run?
A: 7.3 µM

Q: What about the EC50 (DENV2 replicon; [2]) of the same molecule?
A: > 100 µM

Q: What about the EC50 (RSV A2; [3]) of the same molecule?
A: 0.438 µM

Q: And the EC50 (RSV strain A2; [4])?
A: 3.59 µM

Q: With `C[C@H](NP(=O)(OC[C@@]1(C#N)O[C@@H](c2ccc3c(N)ncnn23)[C@H](O)[C@@H]1O)Oc1ccccc1)C(=O)O[C@@H]1CCNC1` (mixture of isomers) [Example 137, (2S)—(R)-pyrrolidin-3-yl 2-(((((2R,3S,4R,5S)-5-(4-aminopyrrolo[2,1-f][1,2,4]triazin-7-yl)-2-cyano-3,4-dihydroxytetrahydrofuran-2-yl)methoxy)(phenoxy)phosphoryl)amino)propanoate] as the molecule, how does the EC50 (HRV16; [1]) read?
A: 27 µM

Q: What about the EC50 (DENV2 replicon; [2]) of the same molecule?
A: > 50 µM

Q: What about the EC50 (RSV A2; [3]) of the same molecule?
A: > 5 µM

Q: And the EC50 (RSV strain A2; [4])?
A: 3.69 µM

Q: What does the source list for `C[C@H](NP(=O)(OC[C@@]1(C#N)O[C@@H](c2ccc3c(N)ncnn23)[C@H](O)[C@@H]1O)Oc1ccccc1)C(=O)O[C@H]1CC[C@H](C)CC1` (mixture of isomers) [Example 142, (2S)-(1r,4S)-4-methylcyclohexyl 2-(((((2R,3S,4R,5S)-5-(4-aminopyrrolo[2,1-f][1,2,4]triazin-7-yl)-2-cyano-3,4-dihydroxytetrahydrofuran-2-yl)methoxy)(phenoxy)phosphoryl)amino)propanoate]?
A: EC50 (HRV16; [1]): 0.164 µM; EC50 (DENV2 replicon; [2]): 12.2 µM; EC50 (RSV A2; [3]): 0.061 µM; EC50 (RSV strain A2; [4]): 0.251 µM

Q: `C[C@H](NP(=O)(OC[C@@]1(C#N)O[C@@H](c2ccc3c(N)ncnn23)[C@H](O)[C@@H]1O)Oc1ccccc1)C(=O)OC1CCNCC1` (mixture of isomers) [Example 145, (2S)-piperidin-4-yl 2-(((((2R,3S,4R,5S)-5-(4-aminopyrrolo[2,1-f][1,2,4]triazin-7-yl)-2-cyano-3,4-dihydroxytetrahydrofuran-2-yl)methoxy)(phenoxy)phosphoryl)amino)propanoate] was tested. Which EC50 (HRV16; [1]) did it give?
A: 46.2 µM

Q: And the EC50 (DENV2 replicon; [2])?
A: > 100 µM

Q: And the EC50 (RSV A2; [3])?
A: > 5 µM

Q: What about the EC50 (RSV strain A2; [4]) of the same molecule?
A: 2.9 µM

Q: `CC(NP(=O)(OC[C@@]1(C#N)O[C@@H](c2ccc3c(N)ncnn23)[C@H](O)[C@@H]1O)Oc1ccccc1)C(=O)O[C@H]1CCNC1=O` (mixture of isomers) [Example 153, (S)-2-oxopyrrolidin-3-yl ((((2R,3S,4R,5S)-5-(4-aminopyrrolo[2,1-f][1,2,4]triazin-7-yl)-2-cyano-3,4-dihydroxytetrahydrofuran-2-yl)methoxy)(phenoxy)phosphoryl)alaninate] was tested. Which EC50 (HRV16; [1]) did it give?
A: 12.5 µM

Q: And the EC50 (DENV2 replicon; [2])?
A: > 100 µM

Q: What about the EC50 (RSV A2; [3]) of the same molecule?
A: > 5 µM

Q: What about the EC50 (RSV strain A2; [4]) of the same molecule?
A: 7.14 µM

Q: Which EC50 (HRV16; [1]) does the source give for `C[C@H](NP(=O)(OC[C@@]1(C#N)O[C@@H](c2ccc3c(N)ncnn23)[C@H](O)[C@@H]1O)Oc1ccccc1)C(=O)OC1CCCC(C)(C)C1` (mixture of isomers) [Example 154, 3,3-dimethylcyclohexyl ((((2R,3S,4R,5S)-5-(4-aminopyrrolo[2,1-f][1,2,4]triazin-7-yl)-2-cyano-3,4-dihydroxytetrahydrofuran-2-yl)methoxy)(phenoxy)phosphoryl)-L-alaninate] here?
A: 1.95 µM

Q: And the EC50 (DENV2 replicon; [2])?
A: 50.7 µM

Q: And the EC50 (RSV A2; [3])?
A: 0.311 µM

Q: And the EC50 (RSV strain A2; [4])?
A: 2.7 µM

Q: What does the source list for `C[C@H](NP(=O)(OC[C@@]1(C#N)O[C@@H](c2ccc3c(N)ncnn23)[C@H](O)[C@@H]1O)Oc1ccccc1)C(=O)O[C@H]1CCCC[C@@H]1C` (mixture of isomers) [Example 155, trans-2-methylcyclohexyl ((((2R,3S,4R,5S)-5-(4-aminopyrrolo[2,1-f][1,2,4]triazin-7-yl)-2-cyano-3,4-dihydroxytetrahydrofuran-2-yl)methoxy)(phenoxy)phosphoryl)-L-alaninate]?
A: EC50 (HRV16; [1]): 4.2 µM; EC50 (DENV2 replicon; [2]): 84.4 µM; EC50 (RSV A2; [3]): 1.58 µM; EC50 (RSV strain A2; [4]): 4.32 µM

Q: Which EC50 (HRV16; [1]) does the source give for `C[C@H](NP(=O)(OC[C@@]1(C#N)O[C@@H](c2ccc3c(N)ncnn23)[C@H](O)[C@@H]1O)Oc1ccccc1)C(=O)OC1CCC(F)(F)CC1` (mixture of isomers) [Example 174, 4,4-difluorocyclohexyl ((((2R,3S,4R,5S)-5-(4-aminopyrrolo[2,1-f][1,2,4]triazin-7-yl)-2-cyano-3,4-dihydroxytetrahydrofuran-2-yl)methoxy)(phenoxy)phosphoryl)-L-alaninate] here?
A: 0.748 µM

Q: And the EC50 (DENV2 replicon; [2])?
A: 33.8 µM

Q: What about the EC50 (RSV A2; [3]) of the same molecule?
A: 1.39 µM

Q: And the EC50 (RSV strain A2; [4])?
A: 0.257 µM

Q: How did the EC50 (HRV16; [5]) turn out when `CCC(CC)COC(=O)[C@H](C)NP(=O)(N[C@@H](C)C(=O)OC)OC[C@@]1(C#N)O[C@@H](c2ccc3c(N)ncnn23)[C@H](O)[C@@H]1O` (mixture of isomers) [Example 221, 2-Ethylbutyl ((((2R,3S,4R,5S)-5-(4-aminopyrrolo[2,1-f][1,2,4]triazin-7-yl)-2-cyano-3,4-dihydroxytetrahydrofuran-2-yl)methoxy)(((S)-1-methoxy-1-oxopropan-2-yl)amino)phosphoryl)-L-alaninate] was run?
A: 8.49 µM

Q: And the EC50 (DENV2 replicon; Dengue virus, DENV2, Huh-7, 48 h)?
A: > 100 µM

Q: And the EC50 (RSV A2; [6])?
A: > 1.05 µM

Q: And the EC50 (RSV strain A2; [6])?
A: 1.18 µM

Q: What does the source list for `CC(C)OC(=O)[C@H](C)N[P@](=O)(OC[C@@]1(C#N)O[C@@H](c2ccc3c(N)ncnn23)[C@H](O)[C@@H]1O)Oc1ccccc1` (single isomer, unassigned) [Example 1]?
A: EC50 (HRV16; [1]): 0.966 µM; EC50 (DENV2 replicon; [2]): > 50 µM; EC50 (RSV A2; [3]): 0.879 µM; EC50 (RSV strain A2; [4]): 0.342 µM

Q: `CC(C)(C)C(=O)OCCNP(=O)(OCC1(C#N)OC(c2ccc3c(N)ncnn23)C(O)C1O)Oc1ccccc1` (single isomer, unassigned) [Example 12] was tested. Which EC50 (HRV16; [5]) did it give?
A: 1.93 µM

Q: What about the EC50 (DENV2 replicon; Huh-7 replicon cells, 48 hours) of the same molecule?
A: > 50 µM

Q: What about the EC50 (RSV A2) of the same molecule?
A: 0.029 µM

Q: And the EC50 (RSV strain A2)?
A: 0.244 µM

Q: What does the source list for `C[C@H](N[P@@](=O)(OC[C@@]1(C#N)O[C@@H](c2ccc3c(N)ncnn23)[C@H](O)[C@@H]1O)Oc1ccccc1)C(=O)O[C@H]1CC[C@H](C(F)(F)F)CC1` (single isomer, unassigned) [Example 17]?
A: EC50 (HRV16; [1]): 0.489 µM; EC50 (DENV2 replicon; [2]): 53.7 µM; EC50 (RSV A2; [3]): 0.088 µM; EC50 (RSV strain A2; [4]): 0.308 µM

Q: `CCCOC(=O)C(C)NP(=O)(OCC1(C#N)OC(c2ccc3c(N)ncnn23)C(O)C1O)Oc1ccccc1` (single isomer, unassigned) [Example 46] was tested. Which EC50 (HRV16; [5]) did it give?
A: 0.487 µM

Q: What about the EC50 (DENV2 replicon; Huh-7 replicon cells, 48 hours) of the same molecule?
A: > 20.8 µM

Q: And the EC50 (RSV A2)?
A: 0.393 µM

Q: And the EC50 (RSV strain A2)?
A: 0.082 µM

Q: With `CCCOC(=O)C(C)NP(=O)(OCC1(C#N)OC(c2ccc3c(N)ncnn23)C(O)C1O)Oc1ccccc1` (single isomer, unassigned) [Example 47] as the molecule, how does the EC50 (HRV16; [5]) read?
A: 0.56 µM

Q: What about the EC50 (DENV2 replicon; Huh-7 replicon cells, 48 hours) of the same molecule?
A: 9.19 µM

Q: What about the EC50 (RSV A2) of the same molecule?
A: 0.162 µM

Q: What about the EC50 (RSV strain A2) of the same molecule?
A: 0.051 µM

Q: What does the source list for `C[C@H](NP(=O)(OC[C@@]1(C#N)O[C@@H](c2ccc3c(N)ncnn23)[C@H](O)[C@@H]1O)Oc1ccccc1)C(=O)OC1CCC1` (single isomer, unassigned) [Example 50]?
A: EC50 (HRV16; [1]): 0.464 µM; EC50 (DENV2 replicon; [2]): 6.92 µM; EC50 (RSV A2; [3]): 0.498 µM; EC50 (RSV strain A2; [4]): 0.044 µM
